# Results reported in US5436254A, “Carbostyril derivatives” (Otsuka Pharmaceutical Company, Ltd., priority 1989, dated 1995).
# Target: V1 receptor (Rattus norvegicus, UniProt P30560)
# Test: biochemical
# Type: binding
# Chain of V1 receptor (P30560 whole entry): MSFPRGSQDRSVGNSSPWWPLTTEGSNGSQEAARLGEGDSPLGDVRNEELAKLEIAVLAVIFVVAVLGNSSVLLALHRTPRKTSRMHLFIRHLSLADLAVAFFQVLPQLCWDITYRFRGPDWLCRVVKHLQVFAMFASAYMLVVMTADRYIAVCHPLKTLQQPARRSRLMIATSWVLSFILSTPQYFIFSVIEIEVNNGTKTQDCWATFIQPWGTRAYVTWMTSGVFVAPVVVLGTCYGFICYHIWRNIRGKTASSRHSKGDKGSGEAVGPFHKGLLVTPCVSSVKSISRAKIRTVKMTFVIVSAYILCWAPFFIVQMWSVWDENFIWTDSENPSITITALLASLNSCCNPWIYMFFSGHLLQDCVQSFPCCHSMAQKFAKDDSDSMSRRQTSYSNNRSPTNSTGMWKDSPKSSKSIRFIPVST
row,SMILES,IC50 [µM]
1,"Nc1ccc(SCCCCCOc2ccc(C(=O)N3CCC(N4C(=O)CCc5ccccc54)CC3)cc2)cc1 [Example 284, 1-{1-(4-[5-(4-Aminophenylthio)pentyloxy]benzoyl)-4-piperidinyl}-3,4-dihydrocarbostyril]",0.4
2,"CCN(CC)CC(O)CCCCCCOc1ccc(C(=O)N2CCC(N3C(=O)CCc4ccccc43)CC2)cc1 (centres unmarked) [Example 184, 1-{1-[4-(7-Hydroxy-8-diethylaminooctyloxy)benzoyl]-4-piperidinyl}-3,4-dihydrocarbostyril]",0.039
3,"O=C(c1ccc(OCCCN2CCN(Cc3ccccc3)CC2)cc1)N1CCC(N2C(=O)CCc3ccccc32)CC1 [Example 133, 1-[1-{4-[3-(4-Benzyl-1-piperazinyl)propoxy]benzoyl}-4-piperidinyl]-3,4-dihydrocarbostyril.dioxalate]",0.33
4,"CCOc1ccc(C(=O)N2CCC(N3C(=O)CCc4c(C)cccc43)CC2)c(OC)c1 [Example 216, 5-Methyl-1-[1-(2-methoxy-4-ethoxybenzoyl)-4-piperidinyl]-3,4-dihydrocarbostyril]",0.041
5,"O=C(CCl)NCCCCOc1ccc(C(=O)N2CCC(N3C(=O)CCc4ccccc43)CC2)cc1 [Example 228, 1-{1-(4-[4-(2-Chloroacetylamino)butoxy]benzoyl)-4-piperidinyl)-3,4-dihydrocarbostyril]",0.2
6,"O=C(c1ccc(OCCCCCSc2ccncc2)cc1)N1CCC(N2C(=O)CCc3ccccc32)CC1 [Example 283, 1-{1-(4-[5-(4-Pyridylthio)pentyloxy]benzoyl)-4-piperidinyl}-3,4-dihydrocarbostyril]",0.61
7,"CN1CCN(C(=O)CCCCCOc2ccc(C(=O)N3CCC(N4C(=O)CCc5ccccc54)CC3)cc2)CC1 [Example 272, 1-{1-(4-[5-(4-Methyl-1-piperazinylcarbonyl)pentyloxy]benzoyl)-4-piperidinyl}-3,4-dihydrocarbostyril]",0.038
8,"O=C(O)C1CCN(C(=O)CCCCCOc2ccc(C(=O)N3CCC(N4C(=O)CCc5ccccc54)CC3)cc2)CC1 [Example 274, 1-{1-(4-[5-(4-Carboxy-1-piperidinylcabonyl)pentyloxy]benzoyl)-4-piperidinyl}-3,4-dihydrocarbostyril]",0.49
9,"CCOc1ccc(C(=O)N2CCC(N3C(=O)CCc4ccccc43)CC2)c(OC)c1 [Example 52, 1-[1-(2-Methoxy-4-ethoxybenzoyl)-4-piperidinyl]-3,4-dihydrocarbostyril]",0.08
10,"NC(=O)[C@H](Cc1c[nH]cn1)NC(=O)CCCCCOc1ccc(C(=O)N2CCC(N3C(=O)CCc4ccccc43)CC2)cc1 [Example 149, 1-{1-[4-{5-[1-(S)-Carbamoyl-2{4(1H)-imidazoyl}]ethylaminocarbonylpentyloxy)benzoyl]-4-piperidinyl}-3,4-dihydrocarbostyril]",0.15
11,"O=C(c1ccc(OCCCN2CCN(CC(O)c3ccccc3)CC2)cc1)N1CCC(N2C(=O)CCc3ccccc32)CC1 (centres unmarked) [Example 138, 1-{1-[4-{3-[4-(2-Phenyl-2-hydroxyethyl)-1-piperazinyl]propoxy}benzoyl]-4-piperidinyl}-3,4-dihydrocarbostyril.dioxalate]",0.24
12,C=CCNCC(=O)NCCCCCOc1ccc(C(=O)N2CCC(N3C(=O)CCc4ccccc43)CC2)cc1 [Example 251],0.098
13,"CN(CCO)CC(O)CCCCOc1ccc(C(=O)N2CCC(N3C(=O)CCc4ccccc43)CC2)cc1 (centres unmarked) [Example 204, 1-{1-[4-(5-Hydroxy-6-[N-(2-hydroxyethyl)-N-methylamino]hexyloxy)benzoyl]-4-piperidinyl}-3,4-dihydrocarbostyril]",0.059
14,"O=C(c1ccc(Oc2ccccc2)cc1)N1CCC(N2C(=O)CCc3ccccc32)CC1 [Example 45, 1-[1-(4-Phenyloxybenzoyl)-4-piperidinyl]-3,4-dihydrocarbostyril]",0.2
15,"CC(=O)OCC(=O)NCCCCCOc1ccc(C(=O)N2CCC(N3C(=O)CCc4ccccc43)CC2)cc1 [Example 229, 1-{1-(4-[5-(2-Acetoxyacetylamino)pentyloxy]benzoyl)-4-piperidinyl]-3,4-dihydrocarbostyril]",0.2
16,"O=C(N[C@@H](CO)C(=O)NCCCOc1ccc(C(=O)N2CCC(N3C(=O)CCc4ccccc43)CC2)cc1)OCc1ccccc1 [Example 226, 1-[1-{4-(3-(S)-{N-(Benzyloxycarbonyl)seryl}aminopropoxy]benzoyl)-4-piperidinyl]-3,4-dihydrocarbostyril]",0.48
17,"COCCOc1cc(OC)ccc1C(=O)N1CCC(N2C(=O)CCc3ccccc32)CC1 [Example 70, 1-{1-[2-(2-Methoxyethoxy)-4-methoxybenzoyl]-4-piperidinyl}-3,4-dihydrocarbostyril]",0.32
18,"O=C(c1ccc(OCCCCCSc2ncccn2)cc1)N1CCC(N2C(=O)CCc3ccccc32)CC1 [Example 279, 1-{1-(4-[5-(2-Pyrimidylthio)pentyloxy]benzoyl)-4-piperidinyl}-3,4-dihydrocarbostyril]",0.18
19,"CN1CCN(CCCOc2ccc(C(=O)N3CCC(N4C(=O)CCc5ccccc54)CC3)cc2)CC1 [Example 136, 1-[1-{4-[3-(4-Methyl-1-piperazinyl)propoxy]benzoyl}-4-piperidinyl]-3,4-dihydrocarbostyril.dioxalate]",0.18

row,SMILES,IC50 [µM]
1,"O=C(CN1CCCC1)NCCCCCOc1ccc(C(=O)N2CCC(N3C(=O)CCc4ccccc43)CC2)cc1 [Example 252, 1-{1-(4-[5-(2-(1-Pyrrolidinyl)acetylamino)pentyloxy]benzoyl)-4-piperidinyl}-3,4-dihydrocarbostyril]",0.086
2,"COc1ccc(C(=O)N2CCC(N3C(=O)CCc4ccccc43)CC2)c(OC(C)=O)c1 [Example 61, 1-[1-(2-Acetoxy-4-methoxybenzoyl)-4-piperidinyl]-3,4-dihydrocarbostyril]",0.3
3,"N#CCCCOc1ccc(C(=O)N2CCC(N3C(=O)CCc4ccccc43)CC2)cc1 [Example 5, 1-{1-[4-(3-Cyanopropoxy)benzoyl]-4-piperidinyl}-3,4-dihydrocarbostyril]",0.49
4,"C[Si](C)(C)c1ccc(C(=O)N2CCC(N3C(=O)CCc4ccccc43)CC2)cc1 [Example 110, 1-[1-(4-Trimethylsilylbenzoyl)-4-piperidinyl]-3,4-dihydrocarbostyril]",1.3
5,"O=C(CO)NCCCCCOc1ccc(C(=O)N2CCC(N3C(=O)CCc4ccccc43)CC2)cc1 [Example 230, 1-[1-(4-[5-(2-Hydroxyacetylamino)pentyloxy]benzoyl)-4-piperidinyl)-3,4-dihydrocarbostyril]",0.18
6,"COC(=O)[C@H](CCCCNC(=O)OCc1ccccc1)NC(=O)CCCCCOc1ccc(C(=O)N2CCC(N3C(=O)CCc4ccccc43)CC2)cc1 [Example 165, 1-{1-[4-{5-[(5-Benzyloxycarbonylamino)-1-(S)-methoxycarbonyl]pentylaminocarbonylpentyloxy}benzoyl]-4-piperidinyl}-3,4-dihydrocarbostyril]",0.54
7,"CC(=O)c1ccc(C(=O)N2CCC(N3C(=O)CCc4ccccc43)CC2)cc1 [Example 107, 1-[1-(4-Acetylbenzoyl)-4-piperidinyl]-3,4-dihydrocarbostyril]",0.75
8,"CC[N+](C)(CC)CC(CCCCOc1ccc(C(=O)N2CCC(N3C(=O)CCc4ccccc43)CC2)cc1)OC (centres unmarked) [Example 301, 1-{1-[4-(5-Methoxy-6-diethylmethylammoniumhexyloxy)benzoyl]-4-piperidinyl}-3,4-dihydrocarbostyril.iodine]",0.047
9,"NC(=O)CCCCOc1ccc(C(=O)N2CCC(N3C(=O)CCc4ccccc43)CC2)cc1 [Example 3, 1-{1-[4-(4-Carbamoylbutoxy)benzoyl]-4-piperidinyl}-3,4-dihydrocarbostyril]",0.33
10,"CN(C)CCCCc1ccc(C(=O)N2CCC(N3C(=O)CCc4ccccc43)CC2)cc1 [Example 180, 1-{1-[4-(4-Dimethylaminobutyl)benzoyl]-4-piperidinyl}-3,4-dihydrocarbostyril]",0.4
11,"COc1cc(OCCCCC(=O)N2CC[S+]([O-])CC2)ccc1C(=O)N1CCC(N2C(=O)CCc3ccccc32)CC1 [Example 295, 1-{1-(2-Methoxy-4-[4-(4-oxothiomorpholino)carbonylbutyloxy)benzoyl]-4-piperidinyl}-3,4-dihydrocarbostyril]",0.077
12,"C=CCc1ccc(C(=O)N2CCC(N3C(=O)CCc4ccccc43)CC2)cc1 [Example 111, 1-[1-(4-Allylbenzoyl)-4-piperidinyl]-3,4-dihydrocarbostyril]",0.73
13,"CCN(CC)CCCCCCOc1ccc(C(=O)N2CCC(N3C(=O)CCc4ccccc43)CC2)cc1 [Example 213, 1-{1-[4-(6-Diethylaminohexyloxy)benzoyl]-4-piperidinyl}-3,4-dihydrocarbostyril]",0.059
14,"Nc1ccc(S(=O)(=O)NCCCCCOc2ccc(C(=O)N3CCC(N4C(=O)CCc5ccccc54)CC3)cc2)cc1 [Example 264, 1-{1-(4-[5-(4-Aminophenylsulfonyl)aminopentyloxy]benzoyl)-4-piperidinyl}-3,4-dihydrocarbostyril]",0.16
15,"CN1CCN(CCCCOc2ccc(C(=O)N3CCC(N4C(=O)CCc5ccccc54)CC3)cc2)CC1 [Example 158, 1-{1-[4-[4-(4-Methyl-1-piperazinyl)butoxy]benzoyl]-4-piperidinyl}-3,4-dihydrocarbostyril.dioxalate]",0.1
16,"COc1cc(N(C)C)ccc1C(=O)N1CCC(N2C(=O)CCc3ccccc32)CC1 [Example 49, 1-[1-(2-Methoxy-4-dimethylaminobenzoyl)-4-piperidinyl]-3,4-dihydrocarbostyril]",0.2
17,"O=C(OCCCCOc1ccc(C(=O)N2CCC(N3C(=O)CCc4ccccc43)CC2)cc1)N1CCN(Cc2ccccc2)CC1 [Example 161, 1-{1-[4-[4-(4-Benzyl-1-piperazinyl)carbonyloxybutoxy]benzoyl]-4-piperidinyl}-3,4-dihydrocarbostyril]",0.45
18,"O=C(c1ccc2c(c1)OCO2)N1CCC(N2C(=O)CCc3ccccc32)CC1 [Example 113, 1-[1-(3,4-Methylenedioxybenzoyl)-4-piperidinyl]-3,4-dihydrocarbostyril]",0.98
19,"CCN(CC)CC(O)CCCCOc1ccc(C(=O)N2CCC(N3C(=O)CCc4ccc(F)cc43)CC2)c(OC)c1 (centres unmarked) [Example 185, 7-Fluoro-1-{1-[4-(5-Hydroxy-6-diethylaminohexyloxy)-2-methoxybenzoyl]-4-piperidinyl}-3,4-dihydrocarbostyril]",0.01
